We go through eleven compounds from PMC6270326, “The Novel [4,5-e][1,3]Diazepine-4,8-dione and Acyclic Carbamoyl Imino-Ureido Derivatives of Imidazole: Synthesis, Anti-Viral and Anti-Tumor Activity Evaluations” (Molecules, 2013).

In general, IC50 refers to the point on the concentration scale where inhibition reaches its midpoint. The term melting point denotes the temperature, or range, at which the solid turns liquid.

The subject of data set [1] is MCF-7 (breast epithelial adenocarcinoma, metastatic). Kind of data set: Proliferation assay (MTT), MCF-7. Format: cell-based. Particulars: Homo sapiens, MCF7, 72 h incubation, read-out: Tumor cell growth IC50, MCF-7. As for the experimental part: (§1) The cell lines HeLa (cervical carcinoma), SW620 (colorectal adenocarcinoma, metastatic), MCF-7 (breast epithelial adenocarcinoma, metastatic), HepG2 (hepatocellular carcinoma) and BJ (normal diploid human fibroblasts), were cultured as monolayers and maintained in Dulbecco’s modified Eagle medium (DMEM) supplemented with 10% fetal bovine serum (FBS), 2 mM L-glutamine, 100 U/mL penicillin and 100 μg/mL streptomycin in a humidified atmosphere with 5% CO2 at 37 °C.
(§2) The panel cell lines were inoculated onto a series of standard 96-well microtiter plates on day 0, at 3,000 to 5,000 cells per well according to the doubling times of specific cell line. Test agents were then added in 10-fold dilutions (0,01 to 100 µM) and incubated for further 72 h. Working dilutions were freshly prepared on the day of testing in the growth medium. The solvent (DMSO) was also tested for eventual inhibitory activity by adjusting its concentration to be the same as in the working concentrations (DMSO concentration never exceeded 0.1%). After 72 h of incubation, the cell growth rate was evaluated by performing the MTT assay: experimentally determined absorbance values were transformed into a cell percentage growth (PG) using the formulas proposed by NIH and described previously. This method directly relies on control of untreated cells at the day of substances addition because it compares the growth of treated cells with the growth of untreated cells in control wells on the same plate—the results are therefore a percentile difference from the calculated expected value. […] If, however, all of the tested concentrations produce PGs exceeding the respective reference level of effect (e.g., PG value of 50) for a given cell line, the highest tested concentration is assigned as the default value (in the screening data report that default value is preceded by a “>” sign). Each test point was performed in quadruplicate in three individual experiments. The results were statistically analyzed (ANOVA, Tukey post-hoc test at p < 0.05). Finally, the effects of the tested substances were evaluated by plotting the mean percentage growth for each cell type in comparison to control on dose response graphs.

The test system of data set [2] is HepG2 (hepatocellular carcinoma). Description: Proliferation assay (MTT), HepG2. Format: cell-based. The conditions noted are these: Homo sapiens, 72 h incubation, read-out: Tumor cell growth IC50, HepG2. As to the method: as §1, §2
The subject of data set [3] is SW620 (colorectal adenocarcinoma, metastatic). Kind of data set: Proliferation assay (MTT), SW620. Format: cell-based. Particulars: Homo sapiens, SW-620, 72 h incubation, read-out: Tumor cell growth IC50, SW620. As for the experimental part:
as §1, §2

The subject of data set [4] is HeLa (cervical carcinoma). Description: Proliferation assay (MTT), HeLa. Particulars: Homo sapiens, 72 h incubation, read-out: Tumor cell growth IC50, HeLa. Format: cell-based. As to the method: as §1, §2
The subject of data set [5] is BJ (normal diploid human fibroblasts). Kind of data set: Proliferation assay (MTT), BJ normal fibroblasts. Format: cell-based. Particulars: for IC50: Fibroblast, BJ normal human skin fibroblasts, 72 h incubation, MTT, read-out: Cell growth IC50, BJ; for Cytotoxicity on human normal fibroblasts (BJ): in words. As for the experimental part: as §1, §2
The test system of data set [6] is HeLa, SW620, MCF-7, HepG2 and BJ cell lines. Kind of data set: Proliferation assay (MTT), whole panel of cell lines. Format: cell-based, human. Particulars: in words. As to the method:
as §1
The panel cell lines were inoculated onto a series of standard 96-well microtiter plates on day 0, at 3,000 to 5,000 cells per well according to the doubling times of specific cell line. Test agents were then added in 10-fold dilutions (0,01 to 100 µM) and incubated for further 72 h. […] After 72 h of incubation, the cell growth rate was evaluated by performing the MTT assay: experimentally determined absorbance values were transformed into a cell percentage growth (PG) using the formulas proposed by NIH and described previously. This method directly relies on control of untreated cells at the day of substances addition because it compares the growth of treated cells with the growth of untreated cells in control wells on the same plate—the results are therefore a percentile difference from the calculated expected value. […] The results were statistically analyzed (ANOVA, Tukey post-hoc test at p < 0.05). […]

Some results are limits rather than exact numbers.

As for `COC(=O)c1ncn(CCN2CCCCC2)c1C(=O)OC` [Compound 2, 1-(2-Piperidin-1-yl-ethyl)-1H-imidazole-4,5-dicarboxylic acid dimethyl ester], the IC50 in data set [1], in data set [2], in data set [3], in data set [4] and in data set [5] was above 100 µM each time.
Turning to `N=c1[nH]c(=O)c2ncn(CCN3CCCC3)c2c(=O)[nH]1` [Compound 11, 6-Imino-1-(2-pyrrolidin-1-yl-ethyl)-6,7-dihydro-1H,5H-1,3,5,7-tetraaza-azulene-4,8-dione], the concentration for half-maximal inhibition (IC50) in data set [1] was above 100 µM; in data set [2], above 100 µM; in data set [3], 20 µM; in data set [4], above 100 µM; in data set [5] it was above 100 µM.
On to `CN(C)CCCn1cnc(C(N)=O)c1C(N)=O` [Compound 8, 1-(3-Dimethylamino-propyl)-1H-imidazole-4,5-dicarboxylic acid diamide], for which the melting point is 205 to 210 °C. The IC50 in data set [1] was above 100 µM. In addition, the IC50 in data set [2] is above 100 µM. Moreover, the concentration for half-maximal inhibition (IC50) in data set [3] was above 100 µM. In addition, in data set [4], the IC50 is above 100 µM. Further, the IC50 in data set [5] is above 100 µM.
On to `N=c1[nH]c(=O)c2ncn(CCN3CCOCC3)c2c(=O)[nH]1` [Compound 9, 6-Imino-1-(2-morpholin-4-yl-ethyl)-6,7-dihydro-1H,5H-1,3,5,7-tetraaza-azulene-4,8-dione], for which the melting point was above 300 °C. Further, the IC50 in data set [1] was above 100 µM. Moreover, the IC50 in data set [2] is above 100 µM. In addition, in data set [3], the concentration for half-maximal inhibition (IC50) was above 100 µM. In addition, the IC50 in data set [4] is above 100 µM. For the same compound, in data set [5], the half-inhibitory concentration (IC50) is above 100 µM.
As to `COC(=O)c1ncn(CCCN(C)C)c1C(=O)OC` [Compound 4, 1-(3-Dimethylamino-propyl)-1H-imidazole-4,5-dicarboxylic acid dimethyl ester], the IC50 in data set [1], in data set [2], in data set [3], in data set [4] and in data set [5] was above 100 µM throughout.
Compound `NC(=O)c1ncn(CCN2CCCCC2)c1C(N)=O` [Compound 6, 1-(2-Piperidin-1-il-etil)-1H-imidazol-4,5-diamide] had a melting point of 200 to 201 °C. Besides, in data set [1], the IC50 was above 100 µM. Further, the IC50 in data set [2] is above 100 µM. The IC50 in data set [3] is above 100 µM. In addition, the concentration for half-maximal inhibition (IC50) in data set [4] is above 100 µM. Also, the half-maximal inhibitory concentration (IC50) in data set [5] is above 100 µM.
As for `COC(=O)c1ncn(CCN2CCOCC2)c1C(=O)OC` [Compound 1, 1-(2-Morpholin-4-yl-ethyl)-1H-imidazole-4,5-dicarboxylic acid dimethyl ester], the IC50 was above 100 µM in data set [1]; above 100 µM in data set [2]; above 100 µM in data set [3]; 24 µM in data set [4]; above 100 µM in data set [5]. The “Cytotoxicity on human normal fibroblasts (BJ)” value (“Cytotoxicity” below) in data set [5] is “no concomitant cytotoxic effects”.
`COC(=O)c1ncn(CCN2CCCC2)c1C(=O)OC` [Compound 3, 1-(2-Pyrrolidin-1-yl-ethyl)-1H-imidazole-4,5-dicarboxylic acid dimethyl ester]: the half-maximal inhibitory concentration (IC50) in data set [1] is above 100 µM; in data set [2] it was above 100 µM; in data set [3] it was above 100 µM; in data set [4], 9.5 µM; in data set [5] it was above 100 µM. Moreover, the “Cytotoxicity” value in data set [5] was “no apparent cytotoxicity”.
Compound `COC(=O)c1ncn(CCN2CCOCC2)c1C(=O)NC(=N)NC(=O)Nc1ccccc1F` [Compound 12, 5-({[3-(2-Fluoro-phenyl)-ureido]-imino-methyl}-carbamoyl)-1-(2-morpholin-4-yl-ethyl)-1H-imidazole-4-carboxylic acid methyl ester] came in with a melting point above 164 °C. The IC50 in data set [1] was above 100 µM. Further, the IC50 in data set [2] is above 100 µM. Also, in data set [3], the IC50 is above 100 µM. Besides, the IC50 in data set [4] was above 100 µM. Moreover, the IC50 in data set [5] was above 100 µM.
With `NC(=O)c1ncn(CCN2CCOCC2)c1C(N)=O` [Compound 5, 1-(2-Morpholin-4-yl-ethyl)-1H-imidazole-4,5-dicarboxylic acid diamide], the melting point fell in the range of 196 to 197 °C. Besides, the 50% inhibitory concentration (IC50) in data set [1] is above 100 µM. For the same compound, the IC50 in data set [2] was above 100 µM. In data set [3], the IC50 was above 100 µM. Moreover, the IC50 in data set [4] came out at 32 µM. Moreover, in data set [5], the “Cytotoxicity” value is given as “no concomitant cytotoxic effects” and the IC50 is above 100 µM.
Compound `N=c1[nH]c(=O)c2ncn(CCN3CCCCC3)c2c(=O)[nH]1` [Compound 10, 6-Imino-1-(2-piperidin-1-yl-ethyl)-6,7-dihydro-1H,5H-1,3,5,7-tetraaza-azulene-4,8-dione] returned a melting point above 300 °C. Further, the IC50 in data set [1] was above 100 µM. In addition, the IC50 in data set [2] came to 41 µM. The half-inhibitory concentration (IC50) in data set [3] came to 31 µM. The IC50 in data set [4] amounted to 31 µM. Moreover, in data set [5], the IC50 is above 100 µM. The “Antiproliferative effect on tested cell lines” value in data set [6] is “moderate non-selective antiproliferative activity”.
